In US9387261B2, “Immunoconjugates targeting CD138 and uses thereof” (priority 2007, dated 2016):
“Also recorded” adds a separate entry of the source.

Tests used:
[1] = higher; cited from earlier work
[2] = tested on: MOLP-8 human multiple myeloma xenografts; assay: MOLP-8 xenograft mouse experiments A, Part I (single bolus i.v. injection); assay type: in vivo, CB.17 SCID mice; settings: for effect on tumor growth compared with PBS-treated animals: single i.v. bolus, 250 μg/kg maytansinoid (nBT062 antibody […])
Description: In these mice, subcutaneous tumors were established (female CB.17 SCID mice) by inoculation with MOLP-8 cell suspensions. Treatment with a single bolus intravenous injection was conducted when tumor volumes reached an average 113 mm^3. Changes in tumor volume and body weight were monitored twice per week.
Female CB.17 SCID mice, five weeks old, were obtained from Charles River Laboratories.
MOLP-8, a human multiple myeloma cell line, was supplied from ATCC.
Each mouse was inoculated with 1×10^7 MOLP-8 cells subcutaneously into the area under the right shoulder. The total volume was 0.2 ml per mouse, in which the ratio of serum-free medium to matrigel (BD Bioscience, Bedford, Mass.) was 1/1 (v/v). Prior to treatment, the xenograft tumors were monitored daily and were allowed to become established.
Eleven days after tumor cell inoculation, 42 mice were selected based on tumor volumes and body weights. […] The forty-two mice were randomly divided into seven groups (A-G) of six animals each based on tumor volume.
Each of six mice in Group A received 200 μl of PBS as vehicle control.
All agents were intravenously administered as a single bolus injection through a lateral tail vein with a 1 ml syringe fitted with a 27 gauge, ½ inch needle.

MOLP-8 tumor xenografts = assay: Bulky MOLP-8 tumor model, Part II / xenograft mouse experiments B (TGD, log cell kill); assay type: in vivo, SCID mice; settings: 450 μg/kg dose; mean time to reach 160 mm^3 minus control
Description: In a second set of experiments, MOLP-8 cells (1.5×10^7 cells per mouse), suspended in a 50:50 mixture of serum free media and matrigel were injected subcutaneously in the area under the right shoulder in 100 μl. Tumor volumes reached about 80 mm^3 at day 11 and the mean of the controls was about 750 mm^3 at day 25, post cell inoculation. […] Each mouse in the control group (n=6) received 0.2 ml of sterile PBS administered into the lateral tail vein (i.v.) in a bolus injection. All treatment doses were based on conjugated maytansinoid. […] Mice were randomized into eleven groups (n=6) by tumor volume using the LabCat Program. The tumor volumes ranged from 40.0 to 152.5 mm^3. The mice were dosed based on the individual body weight.
Tumor size was measured twice per week in three dimensions using the LabCat System (Tumor Measurement and Tracking, Innovative Programming Associated, Inc., Princeton, N.J.).
In this set of experiments, eighty-five mice were inoculated with MOLP-8 cells (1.5×10^7 cells/mouse) subcutaneously in the right shoulder. […] Sixty-six SCID mice bearing bulky MOLP-8 tumors with a mean tumor volume of about 80 mm^3 were randomized into eleven treatment groups (n=6).

In the case of `COc1cc2cc(c1Cl)N(C)C(=O)C[C@H](OC(=O)[C@H](C)N(C)C(C)=O)[C@]1(C)O[C@H]1[C@H](C)[C@@H]1C[C@@](O)(NC(=O)O1)[C@H](OC)/C=C/C=C(\C)C2` [maytansine], the “cytotoxicity relative to anti-cancer drugs affecting tubulin polymerization (Vinca alkaloids, taxol)” value [1] is listed as 200-1000 fold.
With “B-B4-SPP-DM1: conjugate of the murine parental antibody B-B4 with DM1 via SPP linker” the “effect on tumor growth compared with PBS-treated animals” value [2] was “marked delay in tumor growth” and the “homogeneity of anti-tumor activity in individual mice” value ([2]; single i.v. dose 250 μg/kg, FIG. 9) was “more heterogeneously; also recorded: high binding variation”.
With nBT062 the “effect on tumor growth compared with PBS-treated animals” value [2] was “did not cause any significant inhibition of tumor growth” and the “effect on tumor growth compared with PBS-treated animals” value ([2]; listed as huBT062) was “no significant impact on tumor growth”.
In the case of “nBT062-DM1: nBT062 conjugate with DM1, linker not stated; TGD of 18 days matches nBT062-SMCC-DM1”, the “TGD (days), tumor growth delay” value (MOLP-8 tumor xenografts) was 18 days.
